From patent US7524930B2, “Tumor antigen” (Green Peptide Co., Ltd, priority 2003, dated 2009)

How the values were obtained:
Type in all cases: cell-based, human
OK-CTLp or OK-CTL clone = assay: Recognition of peptide-pulsed T2 cells by OK-CTLp or OK-CTL clone (IFN-γ ELISA)
[1] = tested on: peripheral blood mononuclear cells derived from a cancer patient; assay: CTL induction by peptide from autologous PBMC of cancer patient, IFN-γ production on recognition of target cells (Example 5); details: for Recognition of tumor cells by PBMC stimulated in vitro with peptide (IFN-γ production): SW620, CA9-22 and Panc-1 HLA-A2+ tumor cells, result in words; for IFN-γ production from peripheral blood mononuclear cells in recognition of target cells: PBMC stimulated with 10 μM peptide
Excerpt: Among the peptides that were able to enhance IFN-γ production from the OK-CTLp or OK-CTL clone in Example 4, those from P1 to P19 were examined for their ability to induce CTL from peripheral blood mononuclear cells derived from a cancer patient. The method for inducing CTL by a peptide was according to the well-known method (J. Exp. Med., 187:277-288, 1998; Cancer Res., 59:4056-4063, 1999.) Specifically, autologous peripheral blood mononuclear cells (PBMC) derived from a cancer patient, from whom OK-CTLp was obtained, were incubated together with the peptide (10 μM.) The cells were re-stimulated at day 10 and 14 after the start of culturing, using autologous PBMCs as an antigen presenting cell (APC) which were pulsed with 10 μM of the same peptide for 2 h and exposed to irradiation (30 gray.) At day 21 after the start of culturing, the cells were collected to test for surface phenotype. In addition, the cells were examined for the recognition of various target cells, using IFN-γ production measured by ELISA when they were cultured together with the target cells as an indicator. As a target cells, SW620 cell, CA9-22 cell, and Panc-1 cell, which are the HLA-A2^+ tumor cells, were used.

[2] = tested on: peripheral blood mononuclear cells derived from a cancer patient; assay: as above; details: PBMC stimulated with 10 μM peptide

Sequence	IFN-γ production (OK-CTLp or OK-CTL clone; concentration of peptide 0.1 μM) [pg/mL]	IFN-γ production (OK-CTLp or OK-CTL clone; concentration of peptide 50 μM) [pg/mL]	Recognition of tumor cells by PBMC stimulated in vitro with peptide (IFN-γ production) [1]	IFN-γ production from peripheral blood mononuclear cells in recognition of target cells ([1]; target CA9-22 (HLA-A0207/24)) [pg/mL]	IFN-γ production from peripheral blood mononuclear cells in recognition of target cells ([1]; target Panc-1 (HLA-A0201/11)) [pg/mL]	IFN-γ production from peripheral blood mononuclear cells in recognition of target cells ([1]; target SW620 (HLA-A0201/24)) [pg/mL]	IFN-γ production from peripheral blood mononuclear cells in recognition of target cells ([2]; target COLO320 (HLA-A24/24)) [pg/mL]	IFN-γ production from peripheral blood mononuclear cells in recognition of target cells ([2]; target QG56 (HLA-A26/26)) [pg/mL]	IFN-γ production from peripheral blood mononuclear cells in recognition of target cells ([2]; target RERF-LC-MS (HLA-A11/11)) [pg/mL]
LIMLQNALTT (LLMLQNALTT; Designed peptide having an ability to activate HLA-A2 restricted Cytotoxic T lymphocytes) [Peptide P31, Gene 7 1358-1367]	443	314							
LLLLARWEDT (Designed peptide having an ability to activate HLA-A2 restricted Cytotoxic T lymphocytes) [Peptide P2, Gene 1 (UBE2V) 64-73]			induced CTL recognizing any one of the HLA-A2^+ tumor cells	0	0	53	5	0	0
LLQDWHVIL (Designed peptide having an ability to activate HLA-A2 restricted Cytotoxic T lymphocytes) [Peptide P4, Gene 1 (UBE2V) 201-209]			induced CTL recognizing any one of the HLA-A2^+ tumor cells	0	0	60	0	0	0
MLPLECQYL (Designed peptide having an ability to activate HLA-A2 restricted Cytotoxic T lymphocytes) [Peptide P12, Gene 3 (WHSC2) 157-165]			induced CTL recognizing any one of the HLA-A2^+ tumor cells	0	197	46	40	0	0
NVLHFFNAPL (Designed peptide having an ability to activate HLA-A2 restricted Cytotoxic T lymphocytes) [Peptide P9, Gene 2 (HNRPL) 501-510]			produced IFN-γ in a significant amount	98	339	194	0	0	27
QILKGLLFL (Designed peptide having an ability to activate HLA-A2 restricted Cytotoxic T lymphocytes) [Peptide P16, Gene 5 (ppMAPkkk) 290-298]			induced CTL recognizing any one of the HLA-A2^+ tumor cells	147	113	0	0	0	0
RIQEWCSVI (RLQEWCSVI; Designed peptide having an ability to activate HLA-A2 restricted Cytotoxic T lymphocytes) [Peptide P1, Gene 1 (UBE2V) 43-51]			produced IFN-γ in a significant amount	81	492	235	50	0	26
TLLRKERGV (Designed peptide having an ability to activate HLA-A2 restricted Cytotoxic T lymphocytes) [Peptide P13, Gene 3 (WHSC2) 267-275]			produced IFN-γ in a significant amount	95	115	151	0	0	15
